# Key:
# [1] = biological target: α9α10 nAChR (Rattus norvegicus, UniProt P43144+Q9JLB5); format: cell-based
# [2] = biological target: α1β1δε nAChR (muscle) (Homo sapiens, UniProt P02708+P11230+Q04844+Q07001); format: cell-based
# [3] = tested on: CCI-induced mechanical hypersensitivity; design: species or system male Sprague-Dawley rats; conditions: rat, in vivo
# α9α10 nAChR, sequence (P43144 26-479 limits assumed): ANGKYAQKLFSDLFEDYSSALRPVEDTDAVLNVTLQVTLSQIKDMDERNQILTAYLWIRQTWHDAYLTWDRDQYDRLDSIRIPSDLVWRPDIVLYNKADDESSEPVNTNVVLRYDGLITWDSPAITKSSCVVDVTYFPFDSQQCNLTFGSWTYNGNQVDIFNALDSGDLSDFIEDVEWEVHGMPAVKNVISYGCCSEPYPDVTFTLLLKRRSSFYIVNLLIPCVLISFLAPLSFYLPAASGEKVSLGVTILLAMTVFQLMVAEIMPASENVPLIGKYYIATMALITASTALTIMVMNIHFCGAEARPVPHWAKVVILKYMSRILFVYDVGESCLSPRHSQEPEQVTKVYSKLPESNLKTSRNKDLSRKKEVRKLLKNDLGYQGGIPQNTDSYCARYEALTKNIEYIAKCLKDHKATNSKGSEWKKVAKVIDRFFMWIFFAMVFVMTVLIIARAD
# α9α10 nAChR, sequence (Q9JLB5 25-447 limits assumed): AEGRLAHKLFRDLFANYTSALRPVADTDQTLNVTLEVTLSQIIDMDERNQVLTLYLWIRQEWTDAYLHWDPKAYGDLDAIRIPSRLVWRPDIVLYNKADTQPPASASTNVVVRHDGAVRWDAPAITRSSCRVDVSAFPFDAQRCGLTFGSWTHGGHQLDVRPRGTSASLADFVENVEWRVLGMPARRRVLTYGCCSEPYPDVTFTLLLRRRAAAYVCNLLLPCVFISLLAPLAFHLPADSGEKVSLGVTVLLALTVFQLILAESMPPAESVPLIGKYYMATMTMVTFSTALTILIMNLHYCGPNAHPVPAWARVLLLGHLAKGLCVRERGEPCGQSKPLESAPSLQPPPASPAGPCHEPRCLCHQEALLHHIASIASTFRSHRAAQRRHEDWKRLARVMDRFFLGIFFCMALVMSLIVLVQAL
# α1β1δε nAChR (muscle), sequence (P02708 21-457 limits assumed): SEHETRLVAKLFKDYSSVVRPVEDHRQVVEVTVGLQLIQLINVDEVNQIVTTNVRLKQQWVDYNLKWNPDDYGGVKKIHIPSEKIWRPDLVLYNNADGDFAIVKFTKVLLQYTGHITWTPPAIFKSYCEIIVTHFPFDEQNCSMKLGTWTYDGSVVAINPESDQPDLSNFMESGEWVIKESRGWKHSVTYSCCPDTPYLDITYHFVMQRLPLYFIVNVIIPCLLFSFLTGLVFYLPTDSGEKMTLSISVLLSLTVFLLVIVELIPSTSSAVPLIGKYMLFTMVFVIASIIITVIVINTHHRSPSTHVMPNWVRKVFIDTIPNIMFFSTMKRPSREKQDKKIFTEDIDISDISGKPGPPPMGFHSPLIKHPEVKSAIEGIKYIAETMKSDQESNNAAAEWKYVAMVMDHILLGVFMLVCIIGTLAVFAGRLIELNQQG
# α1β1δε nAChR (muscle), sequence (P11230 24-501 limits assumed): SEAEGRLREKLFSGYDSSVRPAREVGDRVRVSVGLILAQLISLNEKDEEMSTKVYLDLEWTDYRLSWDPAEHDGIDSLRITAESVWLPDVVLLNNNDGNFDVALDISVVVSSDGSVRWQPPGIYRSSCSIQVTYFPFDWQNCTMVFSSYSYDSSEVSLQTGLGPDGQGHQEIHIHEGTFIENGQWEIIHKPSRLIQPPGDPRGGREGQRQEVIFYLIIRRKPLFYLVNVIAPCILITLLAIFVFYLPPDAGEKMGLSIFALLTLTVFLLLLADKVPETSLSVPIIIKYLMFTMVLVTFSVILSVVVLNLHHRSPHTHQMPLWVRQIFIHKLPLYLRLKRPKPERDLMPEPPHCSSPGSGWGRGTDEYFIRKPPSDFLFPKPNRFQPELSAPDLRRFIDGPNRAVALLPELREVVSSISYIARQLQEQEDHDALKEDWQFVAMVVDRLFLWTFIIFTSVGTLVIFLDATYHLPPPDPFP
# α1β1δε nAChR (muscle), sequence (Q07001 22-517 limits assumed): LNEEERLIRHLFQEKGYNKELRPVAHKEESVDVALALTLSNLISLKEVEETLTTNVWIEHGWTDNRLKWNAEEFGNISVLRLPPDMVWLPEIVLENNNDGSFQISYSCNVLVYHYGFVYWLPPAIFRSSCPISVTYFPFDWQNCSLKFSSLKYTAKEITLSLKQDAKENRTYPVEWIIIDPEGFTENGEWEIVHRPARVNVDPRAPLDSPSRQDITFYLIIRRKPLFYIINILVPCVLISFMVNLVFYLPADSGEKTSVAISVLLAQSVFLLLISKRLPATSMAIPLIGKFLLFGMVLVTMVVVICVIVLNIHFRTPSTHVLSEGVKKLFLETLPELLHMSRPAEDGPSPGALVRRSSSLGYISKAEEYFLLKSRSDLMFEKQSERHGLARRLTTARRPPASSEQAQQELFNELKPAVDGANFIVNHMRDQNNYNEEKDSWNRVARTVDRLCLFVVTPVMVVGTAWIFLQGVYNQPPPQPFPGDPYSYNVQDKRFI
# α1β1δε nAChR (muscle), sequence (Q04844 21-493 limits assumed): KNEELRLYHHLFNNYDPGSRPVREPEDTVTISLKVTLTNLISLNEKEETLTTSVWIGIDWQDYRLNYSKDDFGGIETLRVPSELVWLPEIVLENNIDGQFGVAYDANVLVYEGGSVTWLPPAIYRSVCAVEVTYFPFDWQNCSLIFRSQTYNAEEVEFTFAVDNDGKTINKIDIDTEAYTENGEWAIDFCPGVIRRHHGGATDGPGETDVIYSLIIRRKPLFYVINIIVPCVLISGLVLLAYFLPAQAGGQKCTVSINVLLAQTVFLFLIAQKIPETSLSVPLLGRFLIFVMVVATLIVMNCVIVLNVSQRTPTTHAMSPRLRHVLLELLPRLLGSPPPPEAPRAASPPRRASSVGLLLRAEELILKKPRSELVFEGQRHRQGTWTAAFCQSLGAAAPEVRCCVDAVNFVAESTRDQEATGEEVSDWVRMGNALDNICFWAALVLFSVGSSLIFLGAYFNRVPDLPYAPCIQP
substance,measurement,setting,value
α-conotoxin RgIA,Hill slope,[1],1.13±0.11
same,IC50,[1],0.0048 µM
same,Hill slope,[2],0.931±0.40
same,IC50,[2],16.1 µM
same,increase of paw withdrawal thresholds ipsilateral to sciatic nerve ligation,[3],65±17%
same,time to significant increase of PWT ipsilateral to CCI,[3],3 to 4 h

# From US9717775B2 (priority 2006, dated 2017)
